Reference: patent US8158631B2, “Heterocyclic antiviral compounds” (Roche Palo Alto LLC, priority 2009, dated 2012)

Tests used:
[1] = target: T1, HCV polymerase (NS5B570n-Con1) (Hepatitis C virus genotype 1b, UniProt Q9WMX2); experiment: HCV NS5B RNA polymerase activity (HCV Polymerase Assay); type: biochemical, HCV Con1 strain
T1 construct: contains a 21 amino acid deletion at the C-terminus relative to the full-length HCV polymerase; made in house; host or cells: E. coli strain BL21(DE) pLysS, plasmid pET17b
Procedure: The enzymatic activity of HCV polymerase (NS5B570n-Con1) was measured as the incorporation of radiolabeled nucleotide monophosphates into acid insoluble RNA products. Unincorporated radiolabeled substrate was removed by filtration and scintillant was added to the washed and dried filter plate containing radiolabeled RNA product. The amount of RNA product generated by NS5B570-Con1 at the end of the reaction was directly proportional to the amount of light emitted by the scintillant.
The N-terminal 6-histidine tagged HCV polymerase, derived from HCV Con1 strain, genotype 1b (NS5B570n-Con1) contains a 21 amino acid deletion at the C-terminus relative to the full-length HCV polymerase and was purified from E. coli strain BL21(DE) pLysS. The construct, containing the coding sequence of HCV NS5B Con1 (GenBank accession number AJ242654) was inserted into the plasmid construct pET17b, downstream of a T7 promoter expression cassette and transformed into E. coli. A single colony was grown overnight as a starter culture and later used inoculate 10 L of LB media supplemented with 100 μg/mL ampicillin at 37° C. Protein expression was induced by the addition of 0.25 mM isopropyl-β-D-thiogalactopyranoside (IPTG) when optical density at […] of the culture was between 0.6 and 0.8 and cells were harvested after 16 to 18 h at 30° C. NS5B570n-Con1 was purified to homogeneity using a three-step protocol including subsequent column chromatography on Ni-NTA, SP-Sepharose HP and Superdex 75 resins.
Each 50 μL enzymatic reaction contained 20 nM RNA template derived from the complementary sequence of the Internal Ribosome Entry Site (cIRES), 20 nM NS5B570n-Con1 enzyme, 0.5 μCi of tritiated UTP (Perkin Elmer catalog no. TRK-412; specific activity: 30 to 60 Ci/mmol; stock solution concentration from 7.5×10^−5 M to 20.6×10^−6 M), 1 μM each ATP, CTP, and GTP, 40 mM Tris-HCl pH 8.0, 40 mM NaCl, 4 mM DTT (dithiothreitol), 4 mM MgCl2, and 5 μL of compound serial diluted in DMSO. Reaction mixtures were assembled in 96-well filter plates (cat #MADVNOB, Millipore Co.) and incubated for 2 h at 30° C. Reactions were stopped by addition of 10% final (v/v) trichloroacetic acid and incubated for 40 min at 4° C. Reactions were filtered, washed with 8 reaction volumes of 10% (v/v) trichloroacetic acetic acid, 4 reaction volumes of 70% (v/v) ethanol, air dried, and 25 μL of scintillant (Microscint 20, Perkin-Elmer) was added to each reaction well.
The amount of light emitted from the scintillant was converted to counts per minute (CPM) on a Topcount® plate reader (Perkin-Elmer, Energy Range: Low, Efficiency Mode Normal, Count Time: 1 min, Background Subtract: none, Cross talk reduction: Off).
Data was analyzed in Excel® (Microsoft®) and ActivityBase® (Idbs®). The reaction in the absence of enzyme was used to determine the background signal, which was subtracted from the enzymatic reactions. Positive control reactions were performed in the absence of compound, from which the background corrected activity was set as 100% polymerase activity. All data was expressed as a percentage of the positive control.
The compound concentration at which the enzyme-catalyzed rate of RNA synthesis was reduced by 50% (IC50) was calculated by fitting equation (i) to the data where“Y”
[formula] corresponds to the relative enzyme activity (in %), “% Min” is the residual relative activity at saturating compound concentration, “% Max” is the relative maximum enzymatic activity, “X” corresponds to the compound concentration, and “S” is the Hill coefficient (or slope).

[2] = system: HCV; conditions: cited from earlier work

Which IC50 [1] does the source give for COc1c(/C=C/c2ccc(NS(C)(=O)=O)cc2)cc(-n2c(C)n[nH]c2=O)cc1C(C)(C)C [Compound I-27, N-(4-{(E)-2-[3-tert-Butyl-2-methoxy-5-(3-methyl-5-oxo-1,5-dihydro-[1,2,4]triazol-4-yl)-phenyl]-vinyl}-phenyl)-methanesulfonamide] here?
The IC50 was 0.3 nM.

And the melting point?
Its melting point is 289 to 291 °C.

Which IC50 [1] does the source give for COc1c(/C=C/c2ccc(NS(C)(=O)=O)cc2)cc(N2CCCNC2=O)cc1C(C)(C)C [Compound I-2, N-(4-{(E)-2-[3-tert-Butyl-2-methoxy-5-(2-oxo-tetrahydro-pyrimidin-1-yl)-phenyl]-vinyl}-phenyl)-methanesulfonamide] here?
The IC50 was 10 nM.

For COc1c(/C=C/c2ccc(NS(C)(=O)=O)cc2CO)cc(-n2ccncc2=O)cc1C(C)(C)C [Compound I-17, N-(4-{(E)-2-[3-tert-Butyl-2-methoxy-5-(2-oxo-2H-pyrazin-1-yl)-phenyl]-vinyl}-3-hydroxymethyl-phenyl)-methanesulfonamide], which IC50 [1] is on record?
The IC50 was 0.49 nM.

And the melting point?
Its melting point is 238 to 240 °C.

For COc1c(/C=C/c2ccccc2C(=O)O)cc(-n2ccncc2=O)cc1C(C)(C)C [Compound I-19, 2-{(E)-2-[3-tert-Butyl-2-methoxy-5-(2-oxo-2H-pyrazin-1-yl)-phenyl]-vinyl}-benzoic acid], which IC50 [1] is on record?
Its IC50 is 2 nM.

Which results are given for COc1c(/C=C/c2ccc(NS(C)(=O)=O)cc2)cc(-n2ccc(=O)[nH]c2=O)c2c1C(C)(C)CO2 [Compound I-23, N-(4-{(E)-2-[7-(2,4-Dioxo-3,4-dihydro-2H-pyrimidin-1-yl)-4-methoxy-3,3-dimethyl-2,3-dihydro-benzofuran-5-yl]-vinyl}-phenyl)-methanesulfonamide]?
IC50 [1]: 0.37 nM; melting point: 285 to 288 °C

Which “patients with serum amino transferase levels reduced to normal” value ([2]; monotherapy) does the source give for NC(=O)c1ncn([C@@H]2O[C@H](CO)[C@@H](O)[C@H]2O)n1 [ribavirin, 1-((2R,3R,4S,5R)-3,4-Dihydroxy-5-hydroxymethyl-tetrahydro-furan-2-yl)-1H-[1,2,4]triazole-3-carboxylic acid amide] here?
The value was 40 % of patients.

And the “effect on serum levels of HCV-RNA” value ([2]; sole treatment / monotherapy)?
The value was “does not lower serum levels of HCV-RNA”.

What does the source list for CC(C)(C)c1cc(/C=C/c2ccc(NS(C)(=O)=O)cc2)cc(N2CCCNC2=O)c1 [I-I, N-(4-{(E)-2-[3-tert-Butyl-5-(2-oxo-tetrahydro-pyrimidin-1-yl)-phenyl]-vinyl}-phenyl)-methanesulfonamide]?
IC50 [1]: 15 nM; melting point: 235 to 237 °C

With COc1c(CCc2ccc(NS(C)(=O)=O)cc2)cc(N2C(=O)CNC2=O)cc1C(C)(C)C [Compound I-7, N-(4-{2-[3-tert-Butyl-5-(2,5-dioxo-imidazolidin-1-yl)-2-methoxy-phenyl]-ethyl}-phenyl)-methanesulfonamide] as the compound, how does the IC50 [1] read?
Its IC50 is 15 nM.

What about the melting point of the same compound?
The melting point was 230 to 231 °C.

Which IC50 [1] does the source give for COc1c(/C=C/c2ccc(NS(C)(=O)=O)cc2)cc(-n2ccccc2=O)cc1C(C)(C)C [Compound I-9, N-(4-{(E)-2-[3-tert-Butyl-2-methoxy-5-(2-oxo-2H-pyridin-1-yl)-phenyl]-vinyl}-phenyl)-methanesulfonamide] here?
The IC50 was 1 nM.

And the melting point?
The melting point was 254 to 256 °C.

With COc1c(/C=C/c2ccc(NS(C)(=O)=O)cc2C(=O)O)cc(-n2ccncc2=O)cc1C(C)(C)C [Compound I-16] as the compound, how does the IC50 [1] read?
Its IC50 is 0.39 nM.

And the melting point?
The melting point was 176 to 179 °C.

Which IC50 [1] does the source give for COc1c(/C=C/c2ccccc2C(=O)O)cc(-n2ccccc2=O)cc1C(C)(C)C [Compound I-18] here?
Its IC50 is 5 nM.

Which IC50 [1] does the source give for COc1c(/C=C/c2ccc(NS(C)(=O)=O)cc2)cc(N2CCCCC2=O)cc1C(C)(C)C [Compound I-8, N-(4-{(E)-2-[3-tert-Butyl-2-methoxy-5-(2-oxo-piperidin-1-yl)-phenyl]-vinyl}-phenyl)-methanesulfonamide] here?
Its IC50 is 16 nM.

What about the melting point of the same compound?
The melting point was 247 to 249 °C.

With COc1c(CCc2ccc(NS(C)(=O)=O)cc2)cc(N2CCCS2(=O)=O)cc1C(C)(C)C [Compound I-20] as the compound, how does the IC50 [1] read?
Its IC50 is 83 nM.

What about the melting point of the same compound?
The melting point was 83 to 86 °C.

With COc1c(/C=C/c2ccc(NS(C)(=O)=O)cc2)cc(-n2cnccc2=O)cc1C(C)(C)C [Compound I-12] as the compound, how does the IC50 [1] read?
Its IC50 is 1 nM.

What about the melting point of the same compound?
Its melting point is 202 to 204 °C.

With COc1c(/C=C/c2ccc(NS(C)(=O)=O)cc2)cc(-n2cc(F)ccc2=O)cc1C(C)(C)C [Compound I-10] as the compound, how does the IC50 [1] read?
The IC50 was 5 nM.

And the melting point?
The melting point was 248 to 250 °C.

For COc1c(CCc2ccc(NS(C)(=O)=O)cc2)cc(N2C(=O)CCNC2=O)cc1C(C)(C)C [Compound I-6, N-(4-{2-[3-tert-Butyl-5-(2,6-dioxo-tetrahydro-pyrimidin-1-yl)-2-methoxy-phenyl]-ethyl}-phenyl)-methanesulfonamide], which IC50 [1] is on record?
Its IC50 is 63 nM.

Which IC50 [1] does the source give for COc1c(CCc2ccc(NS(C)(=O)=O)cc2)cc(N2CCCNC2=O)cc1C(C)(C)C [Compound I-3, N-(4-{2-[3-tert-Butyl-2-methoxy-5-(2-oxo-tetrahydro-pyrimidin-1-yl)-phenyl]-ethyl}-phenyl)-methanesulfonamide] here?
Its IC50 is 13 nM.

And the melting point?
The melting point was 244 to 246 °C.

With COC(=O)c1cc(NS(C)(=O)=O)ccc1/C=C/c1cc(-n2ccncc2=O)cc(C(C)(C)C)c1OC [Compound I-15, 2-{(E)-2-[3-tert-Butyl-2-methoxy-5-(2-oxo-2H-pyrazin-1-yl)-phenyl]-vinyl}-5-methanesulfonylamino-benzoic acid methyl ester] as the compound, how does the IC50 [1] read?
The IC50 was 1 nM.

Which IC50 [1] does the source give for COc1c(-c2nc3cc(NS(C)(=O)=O)ccc3o2)cc(N2CCCNC2=O)cc1C(C)(C)C [Compound I-24, N-{2-[3-tert-Butyl-2-methoxy-5-(2-oxo-tetrahydro-pyrimidin-1-yl)-phenyl]-benzooxazol-5-yl}-methanesulfonamide] here?
The IC50 was 63.3 nM.

With COc1c(CCc2ccc(NS(C)(=O)=O)cc2)cc(N2CCNC2=O)cc1C(C)(C)C [Compound I-4] as the compound, how does the IC50 [1] read?
The IC50 was 32 nM.

What about the melting point of the same compound?
Its melting point is 229 to 231 °C.

With COc1c(/C=C/c2ccc(NS(C)(=O)=O)cc2C(=O)O)cc(N2CCCNC2=O)cc1C(C)(C)C [Compound I-21] as the compound, how does the IC50 [1] read?
The IC50 was 0.23 nM.

What about the melting point of the same compound?
The melting point was 275 to 278 °C.

For COc1c(CCc2ccc(NS(C)(=O)=O)cc2)cc(N2C(=O)NC(C)C2=O)cc1C(C)(C)C (centres unmarked) [Compound I-25], which IC50 [1] is on record?
Its IC50 is 19 nM.

What about the melting point of the same compound?
The melting point was 211 to 212 °C.

With COc1c(/C=C/c2ccc(NS(C)(=O)=O)cc2)cc(-n2ncccc2=O)cc1C(C)(C)C [Compound I-11] as the compound, how does the IC50 [1] read?
Its IC50 is 0.38 nM.

And the melting point?
Its melting point is 260 to 262 °C.

What does the source list for COc1c(-c2cc3ccc(NS(C)(=O)=O)cc3c(=O)o2)cc(-n2ccncc2=O)cc1C(C)(C)C [Compound I-22]?
IC50 [1]: 3 nM; melting point: 272 to 275 °C

With COc1c(/C=C/c2ccc(NS(C)(=O)=O)cc2)cc(N2CCCNS2(=O)=O)cc1C(C)(C)C [Compound I-26, N-(4-{(E)-2-[3-tert-Butyl-5-(1,1-dioxo-1λ^6-[1,2,6]thiadiazinan-2-yl)-2-methoxy-phenyl]-vinyl}-phenyl)-methanesulfonamide] as the compound, how does the IC50 [1] read?
Its IC50 is 5.1 nM.

What about the melting point of the same compound?
The melting point was 255 to 257 °C.
